According to ChEMBL document CHEMBL1131723, “Synthesis and structure-activity relationship of novel glycylcycline derivatives leading to the discovery of GAR-936” (1999):
Values after ≈ are worked out from the molar mass of the structure shown.

How the values were obtained:
Assay type in all cases: functional
Staphylococcus aureus [1] = experiment: In vitro antibacterial activity against Staphylococcus aureus UBMS 90-1 Tet M
Escherichia coli [2] = experiment: In vitro antibacterial activity against Escherichia coli J3272 Tet D
Escherichia coli [3] = experiment: In vitro antibacterial activity against Escherichia coli J3272 Tet C
Staphylococcus aureus [4] = experiment: In vitro antibacterial activity against Staphylococcus aureus UBMS 90-3 sensitive
Escherichia coli [5] = experiment: In vitro antibacterial activity against Escherichia coli PRP1 Tet A
Escherichia coli [6] = experiment: In vitro antibacterial activity against Escherichia coli UBMS 90-4 Tet M
Staphylococcus aureus [7] = experiment: In vitro antibacterial activity against Staphylococcus aureus Smith sensitive
Escherichia coli [8] = experiment: In vitro antibacterial activity against Escherichia coli UBMS 88-1 Tet B
Escherichia coli [9] = experiment: In vitro antibacterial activity against Escherichia coli UBMS 90-5 sensitive
Staphylococcus aureus [10] = experiment: In vitro antibacterial activity against Staphylococcus aureus UBMS 88-7 Tet K
Enterococcus = experiment: In vitro antibacterial activity against Enterococcus ATCC 29212

Compound | MIC (Staphylococcus aureus [1]) | MIC (Escherichia coli [2]) | MIC (Escherichia coli [3]) | MIC (Staphylococcus aureus [4]) | MIC (Escherichia coli [5]) | MIC (Escherichia coli [6]) | MIC (Staphylococcus aureus [7]) | MIC (Escherichia coli [8]) | MIC (Escherichia coli [9]) | MIC (Staphylococcus aureus [10]) | MIC (Enterococcus)
CN(C)c1cc(NC(=O)CN2CCSCC2)c(O)c2c1CC1CC3[C@H](N(C)C)C(=O)C(C(N)=O)=C(O)[C@@]3(O)C(=O)C1=C2O (stereo partly specified) | 1 µg/mL (≈ 1.62 µM) | 16 µg/mL (≈ 26 µM) | > 32 µg/mL | 1 µg/mL (≈ 1.62 µM) | > 32 µg/mL | > 32 µg/mL | 0.5 µg/mL (≈ 0.812 µM) | > 32 µg/mL | > 32 µg/mL | 4 µg/mL (≈ 6.5 µM) | 0.25 µg/mL (≈ 0.406 µM)
CCCCCCNCC(=O)Nc1cc(N(C)C)c2c(c1O)C(=O)C1=C(O)[C@]3(O)C(O)=C(C(N)=O)C(=O)[C@@H](N(C)C)C3CC1C2 (stereo partly specified) | 0.25 µg/mL (≈ 0.407 µM) | 0.12 µg/mL (≈ 0.196 µM) | 0.5 µg/mL (≈ 0.815 µM) | 0.06 µg/mL (≈ 0.0978 µM) | 0.5 µg/mL (≈ 0.815 µM) | 0.25 µg/mL (≈ 0.407 µM) | 0.12 µg/mL (≈ 0.196 µM) | 0.5 µg/mL (≈ 0.815 µM) | 0.25 µg/mL (≈ 0.407 µM) | 2 µg/mL (≈ 3.26 µM) | 0.12 µg/mL (≈ 0.196 µM)
CN(C)c1cc(NC(=O)CN2CCCCC2)c(O)c2c1CC1CC3[C@H](N(C)C)C(=O)C(C(N)=O)=C(O)[C@@]3(O)C(=O)C1=C2O (stereo partly specified) | 0.25 µg/mL (≈ 0.418 µM) | 0.5 µg/mL (≈ 0.837 µM) | 0.25 µg/mL (≈ 0.418 µM) | 0.12 µg/mL (≈ 0.201 µM) | 1 µg/mL (≈ 1.67 µM) | 0.5 µg/mL (≈ 0.837 µM) | 0.12 µg/mL (≈ 0.201 µM) | 0.5 µg/mL (≈ 0.837 µM) | 0.5 µg/mL (≈ 0.837 µM) | 0.25 µg/mL (≈ 0.418 µM) | 0.06 µg/mL (≈ 0.1 µM)
CN(C)c1cc(NC(=O)CNCc2ccccc2)c(O)c2c1CC1CC3[C@H](N(C)C)C(=O)C(C(N)=O)=C(O)[C@@]3(O)C(=O)C1=C2O (stereo partly specified) | 0.5 µg/mL (≈ 0.807 µM) | 0.5 µg/mL (≈ 0.807 µM) | 2 µg/mL (≈ 3.23 µM) | 0.25 µg/mL (≈ 0.403 µM) | 4 µg/mL (≈ 6.45 µM) | 0.5 µg/mL (≈ 0.807 µM) | 0.25 µg/mL (≈ 0.403 µM) | 2 µg/mL (≈ 3.23 µM) | 0.5 µg/mL (≈ 0.807 µM) | 2 µg/mL (≈ 3.23 µM) | 0.25 µg/mL (≈ 0.403 µM)
CN(C)c1cc(NC(=O)CNCc2ccccn2)c(O)c2c1CC1CC3[C@H](N(C)C)C(=O)C(C(N)=O)=C(O)[C@@]3(O)C(=O)C1=C2O (stereo partly specified) | 8 µg/mL (≈ 12.9 µM) | 8 µg/mL (≈ 12.9 µM) | 16 µg/mL (≈ 25.8 µM) | 4 µg/mL (≈ 6.44 µM) | 32 µg/mL (≈ 51.6 µM) | 8 µg/mL (≈ 12.9 µM) | 4 µg/mL (≈ 6.44 µM) | 16 µg/mL (≈ 25.8 µM) | 16 µg/mL (≈ 25.8 µM) | 32 µg/mL (≈ 51.6 µM) | 2 µg/mL (≈ 3.22 µM)

Continued by falling MIC (Staphylococcus aureus [1]), values first:

MIC (Staphylococcus aureus [1]) | MIC (Escherichia coli [2]) | MIC (Escherichia coli [3]) | MIC (Staphylococcus aureus [4]) | MIC (Escherichia coli [5]) | MIC (Escherichia coli [6]) | MIC (Staphylococcus aureus [7]) | MIC (Escherichia coli [8]) | MIC (Escherichia coli [9]) | MIC (Staphylococcus aureus [10]) | MIC (Enterococcus) | Compound
16 µg/mL (≈ 23.4 µM) | 32 µg/mL (≈ 46.8 µM) | 32 µg/mL (≈ 46.8 µM) | 0.5 µg/mL (≈ 0.731 µM) | 32 µg/mL (≈ 46.8 µM) | 32 µg/mL (≈ 46.8 µM) | 0.5 µg/mL (≈ 0.731 µM) | 32 µg/mL (≈ 46.8 µM) | 16 µg/mL (≈ 23.4 µM) | 2 µg/mL (≈ 2.92 µM) | 2 µg/mL (≈ 2.92 µM) | CCCCCCCCCCCNCC(=O)Nc1cc(N(C)C)c2c(c1O)C(=O)C1=C(O)[C@]3(O)C(O)=C(C(N)=O)C(=O)[C@@H](N(C)C)C3CC1C2 (stereo partly specified)
1 µg/mL (≈ 1.56 µM) | 0.5 µg/mL (≈ 0.782 µM) | 2 µg/mL (≈ 3.13 µM) | 0.25 µg/mL (≈ 0.391 µM) | 2 µg/mL (≈ 3.13 µM) | 2 µg/mL (≈ 3.13 µM) | 0.5 µg/mL (≈ 0.782 µM) | 4 µg/mL (≈ 6.25 µM) | 4 µg/mL (≈ 6.25 µM) | 0.5 µg/mL (≈ 0.782 µM) | 0.25 µg/mL (≈ 0.391 µM) | CN(C)c1cc(NC(=O)CNC2CCCCCCC2)c(O)c2c1CC1CC3[C@H](N(C)C)C(=O)C(C(N)=O)=C(O)[C@@]3(O)C(=O)C1=C2O (stereo partly specified)
1 µg/mL (≈ 1.71 µM) | 0.25 µg/mL (≈ 0.428 µM) | 0.5 µg/mL (≈ 0.857 µM) | 0.5 µg/mL (≈ 0.857 µM) | 4 µg/mL (≈ 6.85 µM) | 0.5 µg/mL (≈ 0.857 µM) | 0.5 µg/mL (≈ 0.857 µM) | 0.5 µg/mL (≈ 0.857 µM) | 0.5 µg/mL (≈ 0.857 µM) | 4 µg/mL (≈ 6.85 µM) | 0.25 µg/mL (≈ 0.428 µM) | CN(C)c1cc(NC(=O)CNCC2CC2)c(O)c2c1CC1CC3[C@H](N(C)C)C(=O)C(C(N)=O)=C(O)[C@@]3(O)C(=O)C1=C2O (stereo partly specified)
0.5 µg/mL (≈ 0.878 µM) | 2 µg/mL (≈ 3.51 µM) | 8 µg/mL (≈ 14 µM) | 0.5 µg/mL (≈ 0.878 µM) | 32 µg/mL (≈ 56.2 µM) | 2 µg/mL (≈ 3.51 µM) | 0.25 µg/mL (≈ 0.439 µM) | 4 µg/mL (≈ 7.02 µM) | 2 µg/mL (≈ 3.51 µM) | 4 µg/mL (≈ 7.02 µM) | 0.25 µg/mL (≈ 0.439 µM) | CN(C)c1cc(NC(=O)CNC2CC2)c(O)c2c1CC1CC3[C@H](N(C)C)C(=O)C(C(N)=O)=C(O)[C@@]3(O)C(=O)C1=C2O (stereo partly specified)
0.5 µg/mL (≈ 0.854 µM) | 0.25 µg/mL (≈ 0.427 µM) | 0.5 µg/mL (≈ 0.854 µM) | 0.25 µg/mL (≈ 0.427 µM) | 1 µg/mL (≈ 1.71 µM) | 0.25 µg/mL (≈ 0.427 µM) | 0.12 µg/mL (≈ 0.205 µM) | 0.5 µg/mL (≈ 0.854 µM) | 0.5 µg/mL (≈ 0.854 µM) | 2 µg/mL (≈ 3.41 µM) | 0.12 µg/mL (≈ 0.205 µM) | CCCCNCC(=O)Nc1cc(N(C)C)c2c(c1O)C(=O)C1=C(O)[C@]3(O)C(O)=C(C(N)=O)C(=O)[C@@H](N(C)C)C3CC1C2 (stereo partly specified)
0.5 µg/mL (≈ 0.802 µM) | 0.25 µg/mL (≈ 0.401 µM) | 0.5 µg/mL (≈ 0.802 µM) | 0.25 µg/mL (≈ 0.401 µM) | 1 µg/mL (≈ 1.6 µM) | 0.5 µg/mL (≈ 0.802 µM) | 0.25 µg/mL (≈ 0.401 µM) | 0.5 µg/mL (≈ 0.802 µM) | 0.5 µg/mL (≈ 0.802 µM) | 0.5 µg/mL (≈ 0.802 µM) | 0.12 µg/mL (≈ 0.192 µM) | CN(C)c1cc(NC(=O)CNC2CC3CCC2C3)c(O)c2c1CC1CC3[C@H](N(C)C)C(=O)C(C(N)=O)=C(O)[C@@]3(O)C(=O)C1=C2O (stereo partly specified)
